Experimental findings from patent US20090004232A1, “BIOACTIVE PHARMACEUTICAL/COSMETIC COMPOSITIONS AND MIXED SOLUBILIZATION PROCESS FOR THE FORMULATION THEREOF” (priority 2005, published 2009) are described below.

The data set in a line: Physical stability of the emulsions on storage (phase shift, recrystallization / crystal growth of the active principle). It is filed as physicochemical. The method, then: According to the invention, another physical stability parameter observed is, in particular, the absence of recrystallization phenomenon at ambient temperature and at 4° C., over three months.
In the present text, the expression “active principle in dissolved form” means a molecular state dispersion in a liquid, no crystallization of the active principle being visible to the naked eye nor even using a crossed polarization optical microscope, or using other more accurate techniques such as electron microscopy. Preferably, the bioactive principle particles have a size below 1 nm.
Preferably, according to the invention, the expression “active principle in dissolved form” means a molecular state dispersion in a liquid for which no crystallization of the active principle is visible to the naked eye or using an optical microscope.

With `CC/C(=C\C=C\C(O)(CC)CC)c1cccc(OCc2ccc(CO)c(CO)c2)c1` [(4E,6E)-7-[3-(3,4-bishydroxymethylbenzyloxy)phenyl]-3-ethylnona-4,6-dien-3-ol], where the note is “active principle solubilized in a single phase (hydrophilic phase or lipophilic phase)”, the “physical stability of the emulsion over time” value is “have not made it possible to obtain an emulsion that was physically stable over time”. Moreover, the “crystal growth phenomena of the active principle” value (single phase solubilization, storage at 4° C.) was “appeared from the first month”.
